The test system of data set [1] is citric acid-induced cough responses. The experiment in a line: citric acid-induced cough in guinea pigs (antitussive activity). The data set is classed as in vivo, guinea pig. Conditions: for mean number of citric acid-induced coughs / onset time to the first cough: 0.5 h pretreatment; for mean number of citric acid-induced coughs: vehicle 26±4. As for the experimental part:
The aim of this Example is to provide an assessment of the antitussive activity of intra-tracheally (i.t.) or orally dosed (p.o.) administered theobromine (3-30 mg/kg) compared to the positive control codeine (25 mg/kg, i.p.) against irritant-induced cough responses.
Thirty-six guinea pigs were randomly allocated to one of the six treatment groups (see Table 1) according to the blinding code.

Data set [2] in a line: observations of behaviour and health of dosed animals. The conditions noted are these: codeine 25 mg/kg i.p.; reduction in movement in exposure chamber.
Protocol: Guinea pigs were dosed intra-tracheally with theobromine or vehicle, orally with theobromine and intra-peronteneally with codeine. All pre-treatments were administered at t−30 min prior to citric acid exposure.

For `COc1ccc2c3c1O[C@H]1[C@@H](O)C=C[C@H]4[C@@H](C2)N(C)CC[C@@]341` [codeine], the “mean number of citric acid-induced coughs” value in data set [1] (codeine 25 mg/kg i.p., citric acid 1 M, 10 min exposure + 5 min recovery) is on record as 5±1 coughs. For the same compound, the “onset time to the first cough” value in data set [1] (codeine 25 mg/kg i.p., vehicle 71±26 s) was 337 ± 51 s. For the same compound, the “behaviour of the animals (sedation)” value in data set [2] is given as “slight sedation”.
As to `Cn1cnc2c1c(=O)[nH]c(=O)n2C` [theobromine], in data set [1] (citric acid-induced cough model, inhaled (i.t.) versus oral), the “inhaled dose giving equivalent anti-tussive effect, as fraction of the oral dose” value was “⅓”. Further, the “mean number of citric acid-induced coughs” value in data set [1] (theobromine 10 mg/kg i.t.) turned out to be 10.33±2 coughs. Further, the “onset time to the first cough” value in data set [1] (theobromine 30 mg/kg p.o., versus vehicle control (71±26 s)) is reported as “not significantly increased”. Further, in data set [1] (theobromine 3-30 mg/kg i.t., local administration), the “effect on the total number of coughs” value was “significant dose-dependant effect”.

The record behind these values is patent publication US8703158B2, “Theobromine for the treatment of cough” (Biocopea Limited, priority 2009, dated 2014).
